Key:
[1] = system: muscle-derived stromal cells (MDSC); assay: MDSC proliferation (CellTiter-Glo luminescent cell viability assay); assay type: cell-based, human
Protocol: CellTiter-Glo® luminescent cell viability assay for MDSC in culture with A: TNF-α, B: IL-6 and C: IL-1β. 2.5×10^3 cells were cultured in triplicate for 1, 3 and 5 days in human serum-containing media ± recombinant human cytokine at the concentration indicated. The number of viaBIe cells in culture was determined using the assay, where luminescent signal is directly proportional to the concentration of ATP from viaBIe cells.
In order to test this hypothesis, proliferation of MDSC in human serum-containing media with rhTNF-α, rhIL-6 and rhIL-1β was tested using the CellTiter-Glo® luminescent cell viability assay was used (Promega Corp., Madison, Wis.).
This method assays the number of viaBIe cells in culture, by measuring adenosine triphosphate (ATP), where the luminescent signal is directly proportional to the number of ATP present.

[2] = system: muscle-derived stromal cells (MDSC); assay: ALP quantification assay, osteogenic differentiation of cultured MDSC; assay type: cell-based, human
Source text: The immunoglobulin isotype controls used included IgG^1 for AbBMP-2/4 and AbTGF-β, and IgG^2B for Ab-BMP-7. B: human serum containing culture medium with the addition of recombinant human BMPs and TGF-β. C: fracture supernatant±antibody neutralization of TNF-α, IL-6 and IL-1β. The IgG^1 immunoglobulin was used as the antibody isotype control. D: human serum-containing culture medium with the addition of recombinant human TNF-α, IL-6 and IL-1β. E: Alizarin red staining for bone nodule formation after culture of 1×10^4 MDSC in human serum-containing media. […] A representative image from a single well is shown. All experiments were performed 3 times, in triplicate (n=3) using MDSC from 3 donors. Values for A-D represent a mean from 3 experiments ±SEM, using supernatant from 3 donors in A and C. *: P<0.05; **: P<0.01; ***: P<0.001; 1-way ANOVA with Bonferroni's multiple comparison test in A and C and with Dunnett's multiple comparison test against the media only control in B and D.
To investigate the fracture-derived stimulus for osteogenic differentiation of MDSC, fracture supernatants were prepared using human tibial fracture fragments obtained within 24 hours of injury (ethics approval number—COREC No: 07/Q0411/30). […] Bone fragments were obtained from either fractured tibial fragments or non-traumatically cut bone slices. These were then incubated in serum free DMEM+Glutamax media for 24 hours. The supernatant was then filter sterilised to remove any contaminants and cellular debris. MDSC were then cultured in the presence of either control media, osteogenic media, fracture supernatant or non-fracture supernatant for 7 days before lysis and quantification of ALP levels.
1×10^4 human MDSC were added to wells of a 96 well plate in triplicate. At 24 hrs the media was pipetted off and replaced by 200 μl test media. The media was changed every 3 days. At 7 days the media was removed and the cells lysed in 20 μl NP-40 lysis buffer. An ALP quantification assay (WAKO pure chemical Ltd.) was used. Calibration solution from the assay was serially diluted to make concentrations of 0.25, 0.125 and 0.0625 mmol/L. To empty wells, 20 μl of each calibration solution was added. To another, dH2O was added. 100 μl reagent (1 taBIet per 5 ml buffer solution) was added to each well, and incubated at 37° C. for 20 minutes. 80 μl stop solution was then added to each well and the plate was read using an ELISA spectrometer at 405 nm wavelength. The concentration of ALP in the test wells was extrapolated from the standard curve.

Substance: TNFα
- proliferation of MDSC ([1]; Example 1 discussion, TNFα 1 ng/ml): led to proliferation of MDSC
- MDSC proliferation ([1]; Example 3, 1, 3 and 5 days in human serum-containing media ± recombinant human cytokine (FIG. 28)): do not promote MDSC proliferation
- ALP expression (osteogenic differentiation) in cultured MDSC ([2]; Example 1, exogenous recombinant human factor added to MDSC culture (FIG. 8, 10, 12)): dose-dependent stimulation of ALP expression
- ALP expression by MDSC ([2]; Example 3, 7 days in human serum-containing media with recombinant human factor (FIG. 26B, 26D)): stimulated ALP expression
- concentration at which ALP expression by MDSC is stimulated ([2]; Example 3, 7 days, human serum-containing media (FIG. 26D)): up to 1 ng/ml
- ALP expression by MDSC relative to control ([2]; Example 3, TNF-α at 100 ng/ml, 7 days (FIG. 26D)): non-significantly less than the control
